Assay results from patent publication US20250255848A1, “SUBSTITUTED 6,7-DIHYDRO-5H-BENZO[7]ANNULENE DERIVATIVES, PROCESSES FOR THEIR PREPARATION AND THERAPEUTIC USES THEREOF” (SANOFI, priority 2022, published 2025).
pIC50: −log10 of the molar value.

Biological target: ERα (Homo sapiens (Human), UniProt P03372)
Experiment: Estrogen receptor degradation activity: breast cancer cell ERα in cell western assay
Assay type: cell-based
Details: MCF7 cells; for % Degradation At 0.3 μM: 4 hours, normalised to fulvestrant 0.1 μM and DMSO; for pIC50 / DC50: 4 hours post compound addition, concentration which degrades 50% of the estrogen receptor; for DC50: read-out: Degradation IC50
In short: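 MCF7 cells in phenol-red-free medium with 5% charcoal-stripped FBS, treated 4 h with 9-point 1:5 dilutions (0.3-0.0000018 μM final). ERα measured by in-cell western (anti-ER antibody, Alexa 488), normalized to Syto-64 DNA stain; % decrease scaled DMSO to 0.1 μM fulvestrant, IC50 in nM.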

Sequence of ERα (P03372 whole entry): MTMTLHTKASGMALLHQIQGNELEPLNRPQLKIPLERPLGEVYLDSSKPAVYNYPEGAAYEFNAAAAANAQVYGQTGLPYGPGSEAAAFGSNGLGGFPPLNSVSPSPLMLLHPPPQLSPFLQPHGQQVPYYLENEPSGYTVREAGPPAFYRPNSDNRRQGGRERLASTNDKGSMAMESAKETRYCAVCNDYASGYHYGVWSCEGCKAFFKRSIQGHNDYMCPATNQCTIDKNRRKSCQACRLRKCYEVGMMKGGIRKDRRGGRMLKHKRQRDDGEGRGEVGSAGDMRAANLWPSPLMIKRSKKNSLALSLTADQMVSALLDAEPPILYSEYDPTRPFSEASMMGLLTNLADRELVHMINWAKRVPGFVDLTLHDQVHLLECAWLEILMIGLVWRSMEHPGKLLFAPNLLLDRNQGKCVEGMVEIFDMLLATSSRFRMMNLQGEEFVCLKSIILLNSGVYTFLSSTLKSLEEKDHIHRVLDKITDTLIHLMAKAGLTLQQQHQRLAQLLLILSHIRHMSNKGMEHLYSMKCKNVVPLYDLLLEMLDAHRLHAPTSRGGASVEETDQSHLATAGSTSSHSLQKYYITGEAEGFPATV

SMILES	% Degradation At 0.3 μM	pIC50	DC50
COc1ccc(C2=C(c3ccc(C=C4CN(CCCF)C4)cc3)c3ccc(C(=O)O)cc3CCC2)c(C(F)(F)F)c1 [Compound 62, 9-(4-((1-(3-fluoropropyl)azetidin-3-ylidene)methyl)phenyl)-8-(4-methoxy-2-(trifluoromethyl)phenyl)-6,7-dihydro-5H-benzo[7]annulene-3-carboxylic acid]	93%	9.30	
COc1c(C2=C(c3ccc(C=C4CN(CCCF)C4)cc3)c3ccc(C(=O)O)cc3CCC2)cccc1C(F)(F)F [Compound 63, 9-(4-((1-(3-fluoropropyl)azetidin-3-ylidene)methyl)phenyl)-8-(2-methoxy-3-(trifluoromethyl)phenyl)-6,7-dihydro-5H-benzo[7]annulene-3-carboxylic acid]	94%	9.00	
O=C(O)c1ccc2c(c1)CCCC(c1cccc3c1CCCO3)=C2c1ccc(C=C2CN(CCCF)C2)cc1 [Compound 64, 8-(chroman-5-yl)-9-(4-((1-(3-fluoropropyl)azetidin-3-ylidene)methyl)phenyl)-6,7-dihydro-5H-benzo[7]annulene-3-carboxylic acid]	96%	8.51	
CC1(C)CCC(C2=C(c3ncc(C=C4CN(CCCF)C4)cc3F)c3ccc(C(=O)O)cc3CCC2)CC1 [Compound 65, 8-(4,4-dimethylcyclohexyl)-9-(3-fluoro-5-((1-(3-fluoropropyl)azetidin-3-ylidene)methyl)pyridin-2-yl)-6,7-dihydro-5H-benzo[7]annulene-3-carboxylic acid]	91%	9.10	
CC1(C)CCC(C2=C(c3ncc(C=C4CN(CCC(F)F)C4)cc3F)c3ccc(C(=O)O)cc3CCC2)CC1 [Compound 66, 9-(5-((1-(3,3-difluoropropyl)azetidin-3-ylidene)methyl)-3-fluoropyridin-2-yl)-8-(4,4-dimethylcyclohexyl)-6,7-dihydro-5H-benzo[7]annulene-3-carboxylic acid]	86%	8.77	
O=C(O)c1ccc2c(c1)CCCC(c1cccc3c1OCCC3)=C2c1ccc(C=C2CN(CCCF)C2)cc1 [Compound 67, 8-(chroman-8-yl)-9-(4-((1-(3-fluoropropyl)azetidin-3-ylidene)methyl)phenyl)-6,7-dihydro-5H-benzo[7]annulene-3-carboxylic acid]	90%	9.00	
CC1(C)CCC(C2=C(c3ccc(C=C4CN(CCCF)C4)cc3)c3ccc(C(=O)O)cc3CCC2)CC1 [Compound 68, 8-(4,4-dimethylcyclohexyl)-9-(4-((1-(3-fluoropropyl)azetidin-3-ylidene)methyl)phenyl)-6,7-dihydro-5H-benzo[7]annulene-3-carboxylic acid]	86%		0.7 nM
COc1cc(C(F)(F)F)cc(C(F)(F)F)c1C1=C(c2ccc(C=C3CN(CCCF)C3)cc2)c2ccc(C(=O)O)cc2CCC1 [Compound 71, 9-(4-((1-(3-fluoropropyl)azetidin-3-ylidene)methyl)phenyl)-8-(2-methoxy-4,6-bis(trifluoromethyl)phenyl)-6,7-dihydro-5H-benzo[7]annulene-3-carboxylic acid]	95%	9.30	
Cc1cc(C)c(C2=C(c3ccc(C=C4CN(CCCF)C4)cc3)c3ccc(C(=O)O)cc3CCC2)c(C(F)(F)F)c1 [Compound 72, 8-(2,4-dimethyl-6-(trifluoromethyl)phenyl)-9-(4-((1-(3-fluoropropyl)azetidin-3-ylidene)methyl)phenyl)-6,7-dihydro-5H-benzo[7]annulene-3-carboxylic acid]	100%	9.52	
Cc1c(C2=C(c3ccc(C=C4CN(CCCF)C4)cc3)c3ccc(C(=O)O)cc3CCC2)ccc(C(F)(F)F)c1F [Compound 73, 8-(3-fluoro-2-methyl-4-(trifluoromethyl)phenyl)-9-(4-((1-(3-fluoropropyl)azetidin-3-ylidene)methyl)phenyl)-6,7-dihydro-5H-benzo[7]annulene-3-carboxylic acid]	85%		0.3 nM
CCc1cccc(CC)c1C1=C(c2ccc(C=C3CN(CCCF)C3)cc2)c2ccc(C(=O)O)cc2CCC1 [Compound 74, 8-(2,6-diethylphenyl)-9-(4-((1-(3-fluoropropyl)azetidin-3-ylidene)methyl)phenyl)-6,7-dihydro-5H-benzo[7]annulene-3-carboxylic acid]	90%	9.10	
Cc1ccc(F)c(C)c1C1=C(c2ccc(C=C3CN(CCCF)C3)cc2)c2ccc(C(=O)O)cc2CCC1 [Compound 75, 8-(3-fluoro-2,6-dimethylphenyl)-9-(4-((1-(3-fluoropropyl)azetidin-3-ylidene)methyl)phenyl)-6,7-dihydro-5H-benzo[7]annulene-3-carboxylic acid]	95%	9.70	
Cc1cc(C)c(C2=C(c3ccc(C=C4CN(CCCF)C4)cc3)c3ccc(C(=O)O)cc3CCC2)c(F)c1 [Compound 76, 8-(2-fluoro-4,6-dimethylphenyl)-9-(4-((1-(3-fluoropropyl)azetidin-3-ylidene)methyl)phenyl)-6,7-dihydro-5H-benzo[7]annulene-3-carboxylic acid]	95%	9.70	
Cc1cccc(OC(F)(F)F)c1C1=C(c2ccc(C=C3CN(CCCF)C3)cc2)c2ccc(C(=O)O)cc2CCC1 [Compound 77, 9-(4-((1-(3-fluoropropyl)azetidin-3-ylidene)methyl)phenyl)-8-(2-methyl-6-(trifluoromethoxy)phenyl)-6,7-dihydro-5H-benzo[7]annulene-3-carboxylic acid]	95%	9.15	
Cc1cc(C(F)(F)F)c(C)cc1C1=C(c2ccc(C=C3CN(CCCF)C3)cc2)c2ccc(C(=O)O)cc2CCC1 [Compound 78, 8-(2,5-dimethyl-4-(trifluoromethyl)phenyl)-9-(4-((1-(3-fluoropropyl)azetidin-3-ylidene)methyl)phenyl)-6,7-dihydro-5H-benzo[7]annulene-3-carboxylic acid]	94%	9.40	
O=C(O)c1ccc2c(c1)CCCC(c1cccc(C(F)(F)F)c1C(F)(F)F)=C2c1ccc(C=C2CN(CCCF)C2)cc1 [Compound 79, 8-(2,3-bis(trifluoromethyl)phenyl)-9-(4-((1-(3-fluoropropyl)azetidin-3-ylidene)methyl)phenyl)-6,7-dihydro-5H-benzo[7]annulene-3-carboxylic acid]	100%	9.40	
CCc1cc(C)cc(CC)c1C1=C(c2ccc(C=C3CN(CCCF)C3)cc2)c2ccc(C(=O)O)cc2CCC1 [Compound 80, 8-(2,6-diethyl-4-methylphenyl)-9-(4-((1-(3-fluoropropyl)azetidin-3-ylidene)methyl)phenyl)-6,7-dihydro-5H-benzo[7]annulene-3-carboxylic acid]	105%	8.92	
COc1cccc(C2=C(c3ccc(C=C4CN(CCCF)C4)cc3)c3ccc(C(=O)O)cc3CCC2)c1OC [Compound 81, 8-(2,3-dimethoxyphenyl)-9-(4-((1-(3-fluoropropyl)azetidin-3-ylidene)methyl)phenyl)-6,7-dihydro-5H-benzo[7]annulene-3-carboxylic acid]	92%	9.15	
